Measured values published in ChEMBL document CHEMBL3588744, “Structure-Based Optimization of Naphthyridones into Potent ATAD2 Bromodomain Inhibitors” (J Med Chem, 2015).

What was measured:
[1] = target: Bromodomain-containing protein 1 (Homo sapiens, UniProt O95696); assay: Binding affinity to BRPF2 (unknown origin) by BROMOscan panel based assay
[2] = target: T1, Bromodomain-containing protein 9 (Homo sapiens, UniProt Q9H8M2); assay: Binding affinity to BRD9 in human HUT78 cells incubated for 45 mins by mass spectrometry based bromosphere chemoproteomic assay; type: cell-based
T1 sequence (Q9H8M2 whole entry): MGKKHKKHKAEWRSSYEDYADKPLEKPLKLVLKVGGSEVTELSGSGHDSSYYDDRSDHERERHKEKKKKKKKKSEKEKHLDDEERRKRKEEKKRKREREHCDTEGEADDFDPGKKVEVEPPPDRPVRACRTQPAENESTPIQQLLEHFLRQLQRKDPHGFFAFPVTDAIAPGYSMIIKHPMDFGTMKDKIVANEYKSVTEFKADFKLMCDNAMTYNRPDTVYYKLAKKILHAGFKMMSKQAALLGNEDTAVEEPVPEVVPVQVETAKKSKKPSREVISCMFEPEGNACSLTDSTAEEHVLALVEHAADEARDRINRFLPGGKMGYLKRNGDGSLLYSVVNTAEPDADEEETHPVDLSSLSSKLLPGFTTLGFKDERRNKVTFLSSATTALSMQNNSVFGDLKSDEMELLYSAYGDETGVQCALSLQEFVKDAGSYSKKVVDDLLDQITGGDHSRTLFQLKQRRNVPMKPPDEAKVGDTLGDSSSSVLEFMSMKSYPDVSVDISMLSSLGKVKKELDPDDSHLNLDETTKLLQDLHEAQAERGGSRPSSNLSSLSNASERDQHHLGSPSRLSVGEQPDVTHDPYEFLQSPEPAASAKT

[3] = target: Bromodomain-containing protein 4 (Homo sapiens, UniProt O60885); assay: Binding affinity to BRD4 BD1 (unknown origin) by BROMOscan panel based assay
[4] = target: Bromodomain and PHD finger-containing protein 3 (Homo sapiens, UniProt Q9ULD4); assay: Binding affinity to BRPF3 (unknown origin) by BROMOscan panel based assay
[5] = target: Histone acetyltransferase KAT2A (Homo sapiens, UniProt Q92830); assay: Binding affinity to KAT2A in human HUT78 cells incubated for 45 mins by mass spectrometry based bromosphere chemoproteomic assay; type: cell-based
[6] = Permeability across phosphatidyl choline membrane at pH 7.4 after 3 hrs by HPLC with UV detection method; type: ADME; conditions: not told, read-out: permeability
[7] = target: ATPase family AAA domain-containing protein 2B (Homo sapiens, UniProt Q9ULI0); assay: Binding affinity to ATAD2B in human HUT78 cells incubated for 45 mins by mass spectrometry based bromosphere chemoproteomic assay; type: cell-based
[8] = target: Transcription initiation factor TFIID subunit 1-like (Homo sapiens, UniProt Q8IZX4); assay: Binding affinity to TAF1L (unknown origin) by BROMOscan panel based assay
[9] = target: Tyrosine-protein kinase BAZ1B (Homo sapiens, UniProt Q9UIG0); assay: Binding affinity to BAZ1B in human HUT78 cells incubated for 45 mins by mass spectrometry based bromosphere chemoproteomic assay; type: cell-based
Chain of Tyrosine-protein kinase BAZ1B (Q9UIG0 whole entry): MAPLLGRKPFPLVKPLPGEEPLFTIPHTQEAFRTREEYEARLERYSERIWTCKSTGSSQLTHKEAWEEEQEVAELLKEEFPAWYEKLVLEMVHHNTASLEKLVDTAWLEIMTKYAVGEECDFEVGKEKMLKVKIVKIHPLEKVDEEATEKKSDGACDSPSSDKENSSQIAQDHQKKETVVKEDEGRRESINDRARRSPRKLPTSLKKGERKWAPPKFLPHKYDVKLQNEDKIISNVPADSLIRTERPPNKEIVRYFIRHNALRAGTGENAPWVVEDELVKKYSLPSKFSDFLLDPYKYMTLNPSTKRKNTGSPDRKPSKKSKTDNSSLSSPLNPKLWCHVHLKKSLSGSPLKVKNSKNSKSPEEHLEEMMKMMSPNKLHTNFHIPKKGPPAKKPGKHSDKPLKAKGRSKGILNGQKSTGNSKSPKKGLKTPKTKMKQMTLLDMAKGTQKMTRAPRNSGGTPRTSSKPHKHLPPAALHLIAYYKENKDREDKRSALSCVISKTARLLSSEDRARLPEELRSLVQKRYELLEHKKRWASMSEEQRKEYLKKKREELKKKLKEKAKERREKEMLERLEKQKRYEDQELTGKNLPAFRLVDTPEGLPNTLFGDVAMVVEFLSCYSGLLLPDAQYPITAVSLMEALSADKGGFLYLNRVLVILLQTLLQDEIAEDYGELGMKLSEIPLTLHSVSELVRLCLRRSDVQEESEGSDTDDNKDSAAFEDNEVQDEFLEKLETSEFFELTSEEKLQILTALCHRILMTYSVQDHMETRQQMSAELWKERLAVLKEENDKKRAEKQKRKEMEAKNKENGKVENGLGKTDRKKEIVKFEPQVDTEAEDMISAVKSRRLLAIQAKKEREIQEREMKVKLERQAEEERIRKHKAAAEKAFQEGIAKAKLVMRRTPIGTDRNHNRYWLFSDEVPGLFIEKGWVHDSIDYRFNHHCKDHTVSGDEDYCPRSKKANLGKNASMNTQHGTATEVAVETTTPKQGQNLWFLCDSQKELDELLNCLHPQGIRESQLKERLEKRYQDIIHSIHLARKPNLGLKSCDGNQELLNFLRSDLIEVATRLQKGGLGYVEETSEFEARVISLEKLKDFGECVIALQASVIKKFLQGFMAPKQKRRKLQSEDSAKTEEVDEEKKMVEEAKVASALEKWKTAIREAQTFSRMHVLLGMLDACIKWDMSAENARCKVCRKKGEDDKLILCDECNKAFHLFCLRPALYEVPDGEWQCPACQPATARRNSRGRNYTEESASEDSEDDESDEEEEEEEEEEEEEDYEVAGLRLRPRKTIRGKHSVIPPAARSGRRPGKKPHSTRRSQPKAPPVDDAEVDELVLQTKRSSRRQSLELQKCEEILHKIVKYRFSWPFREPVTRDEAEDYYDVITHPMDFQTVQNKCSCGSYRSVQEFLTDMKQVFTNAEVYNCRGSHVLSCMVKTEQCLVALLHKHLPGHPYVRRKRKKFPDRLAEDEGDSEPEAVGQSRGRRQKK

Chain of Histone acetyltransferase KAT2A (Q92830 whole entry): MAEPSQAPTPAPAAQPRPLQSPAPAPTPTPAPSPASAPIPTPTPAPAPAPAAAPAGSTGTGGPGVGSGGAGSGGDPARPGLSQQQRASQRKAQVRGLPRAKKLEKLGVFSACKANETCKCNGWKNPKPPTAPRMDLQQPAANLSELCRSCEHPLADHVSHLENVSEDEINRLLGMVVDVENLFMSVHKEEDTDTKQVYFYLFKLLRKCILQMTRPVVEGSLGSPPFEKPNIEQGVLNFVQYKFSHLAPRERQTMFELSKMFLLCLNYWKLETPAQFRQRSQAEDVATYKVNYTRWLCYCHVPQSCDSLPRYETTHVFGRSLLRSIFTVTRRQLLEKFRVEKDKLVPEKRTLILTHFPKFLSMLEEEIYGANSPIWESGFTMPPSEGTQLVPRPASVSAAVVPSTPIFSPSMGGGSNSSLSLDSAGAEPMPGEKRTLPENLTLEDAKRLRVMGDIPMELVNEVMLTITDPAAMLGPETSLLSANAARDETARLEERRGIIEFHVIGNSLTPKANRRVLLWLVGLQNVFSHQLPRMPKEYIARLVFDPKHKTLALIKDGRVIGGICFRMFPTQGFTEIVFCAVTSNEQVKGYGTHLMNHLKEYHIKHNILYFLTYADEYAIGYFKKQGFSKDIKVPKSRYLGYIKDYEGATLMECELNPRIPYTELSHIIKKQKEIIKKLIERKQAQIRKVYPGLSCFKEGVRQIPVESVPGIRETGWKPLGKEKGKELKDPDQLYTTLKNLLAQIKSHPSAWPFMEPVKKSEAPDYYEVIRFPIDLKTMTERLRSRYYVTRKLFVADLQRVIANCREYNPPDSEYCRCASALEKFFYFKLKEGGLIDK
Chain of Bromodomain-containing protein 1 (O95696 whole entry): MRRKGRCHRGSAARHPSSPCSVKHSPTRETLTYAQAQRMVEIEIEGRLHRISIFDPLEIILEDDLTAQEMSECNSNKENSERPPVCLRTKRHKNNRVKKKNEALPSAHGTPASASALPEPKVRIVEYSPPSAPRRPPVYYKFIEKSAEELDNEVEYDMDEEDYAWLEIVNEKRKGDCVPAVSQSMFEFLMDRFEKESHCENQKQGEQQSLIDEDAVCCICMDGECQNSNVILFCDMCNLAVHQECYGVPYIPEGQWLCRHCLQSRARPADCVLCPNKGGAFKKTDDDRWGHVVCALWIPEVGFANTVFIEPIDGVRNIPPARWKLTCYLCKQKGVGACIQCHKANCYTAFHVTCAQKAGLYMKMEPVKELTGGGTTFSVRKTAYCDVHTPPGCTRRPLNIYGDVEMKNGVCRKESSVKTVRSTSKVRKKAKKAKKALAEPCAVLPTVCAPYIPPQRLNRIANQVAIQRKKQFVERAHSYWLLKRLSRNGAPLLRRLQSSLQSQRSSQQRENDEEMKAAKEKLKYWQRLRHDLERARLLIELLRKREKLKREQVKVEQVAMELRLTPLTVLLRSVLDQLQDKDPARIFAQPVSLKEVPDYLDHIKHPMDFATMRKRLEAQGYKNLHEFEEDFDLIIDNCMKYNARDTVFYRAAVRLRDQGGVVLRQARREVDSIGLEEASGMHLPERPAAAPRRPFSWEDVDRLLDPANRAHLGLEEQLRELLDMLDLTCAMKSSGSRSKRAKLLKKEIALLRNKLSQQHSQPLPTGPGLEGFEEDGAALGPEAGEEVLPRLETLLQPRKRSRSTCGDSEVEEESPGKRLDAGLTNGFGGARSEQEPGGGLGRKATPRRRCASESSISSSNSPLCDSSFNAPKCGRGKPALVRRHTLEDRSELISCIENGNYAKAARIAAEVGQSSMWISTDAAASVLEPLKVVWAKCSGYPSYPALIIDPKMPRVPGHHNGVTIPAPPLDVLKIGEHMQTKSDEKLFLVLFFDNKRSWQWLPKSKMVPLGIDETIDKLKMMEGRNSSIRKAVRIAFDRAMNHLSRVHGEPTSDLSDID
Chain of ATPase family AAA domain-containing protein 2B (Q9ULI0 whole entry, the tested form may be a part): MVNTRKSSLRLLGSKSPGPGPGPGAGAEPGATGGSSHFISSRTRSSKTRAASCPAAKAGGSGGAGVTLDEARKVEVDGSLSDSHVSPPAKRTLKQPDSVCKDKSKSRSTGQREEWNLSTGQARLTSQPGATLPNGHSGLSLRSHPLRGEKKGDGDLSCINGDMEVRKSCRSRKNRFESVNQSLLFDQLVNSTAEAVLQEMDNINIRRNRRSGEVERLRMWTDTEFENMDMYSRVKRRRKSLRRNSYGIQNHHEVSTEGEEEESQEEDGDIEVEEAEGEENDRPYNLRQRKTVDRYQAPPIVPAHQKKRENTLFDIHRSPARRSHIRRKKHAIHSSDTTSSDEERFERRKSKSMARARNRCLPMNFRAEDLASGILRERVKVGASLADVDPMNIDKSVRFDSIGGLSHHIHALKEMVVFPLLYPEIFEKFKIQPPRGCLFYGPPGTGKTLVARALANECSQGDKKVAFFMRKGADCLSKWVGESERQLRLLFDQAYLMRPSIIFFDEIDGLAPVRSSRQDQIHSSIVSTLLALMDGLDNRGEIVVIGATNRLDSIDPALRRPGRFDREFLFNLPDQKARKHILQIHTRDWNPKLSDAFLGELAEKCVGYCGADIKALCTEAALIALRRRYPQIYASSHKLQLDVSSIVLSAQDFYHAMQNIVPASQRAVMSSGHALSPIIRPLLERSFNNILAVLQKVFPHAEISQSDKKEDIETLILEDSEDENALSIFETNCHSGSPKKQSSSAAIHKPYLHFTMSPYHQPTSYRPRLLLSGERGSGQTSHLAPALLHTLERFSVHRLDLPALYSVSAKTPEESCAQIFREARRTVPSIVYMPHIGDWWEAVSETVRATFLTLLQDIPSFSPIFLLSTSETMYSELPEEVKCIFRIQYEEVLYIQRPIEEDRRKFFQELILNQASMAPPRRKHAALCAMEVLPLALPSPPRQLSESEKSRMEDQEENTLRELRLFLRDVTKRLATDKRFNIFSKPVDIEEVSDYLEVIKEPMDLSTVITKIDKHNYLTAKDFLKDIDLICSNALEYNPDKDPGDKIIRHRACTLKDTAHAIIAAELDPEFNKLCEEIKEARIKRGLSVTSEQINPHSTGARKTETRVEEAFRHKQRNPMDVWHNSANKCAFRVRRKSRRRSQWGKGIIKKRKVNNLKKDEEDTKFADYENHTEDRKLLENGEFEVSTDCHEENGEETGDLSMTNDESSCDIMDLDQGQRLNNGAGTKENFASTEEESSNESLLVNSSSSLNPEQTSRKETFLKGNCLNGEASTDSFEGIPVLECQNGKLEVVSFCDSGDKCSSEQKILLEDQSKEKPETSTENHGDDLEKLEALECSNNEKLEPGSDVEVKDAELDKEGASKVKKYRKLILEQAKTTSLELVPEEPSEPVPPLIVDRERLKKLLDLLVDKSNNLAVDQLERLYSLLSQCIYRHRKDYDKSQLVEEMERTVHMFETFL

## Cc1cncc(-c2cnc(N[C@@H]3CCN(C)C[C@H]3OCC3CCS(=O)(=O)CC3)c3[nH]c(=O)c(C)cc23)c1
[1]
  Ki: 398 nM
[2]
  Kd: 15800 nM
[3]
  Ki: 7940 nM
[4]
  Ki: 794 nM
[5]
  Kd: > 100000 nM
[6]
  Papp at 3 h: < 1 ×10⁻⁶ cm/s
[7]
  Kd: 100 nM
[8]
  Ki: 126 nM
[9]
  Kd: > 100000 nM
